Results: PMC3404088, “Development of a Small D-Enantiomeric Alzheimer’s Amyloid-β Binding Peptide Ligand for Future In Vivo Imaging Applications” (PLoS ONE, 2012)

Experiments:
Aβ1–42 fibrils [1] = target: T1, Aβ1–42 fibrils (Homo sapiens, UniProt P05067); test: Surface plasmon resonance (Biacore 1000), semi-quantitative binding to immobilized Aβ1–42 fibrils; settings: 50 µg/ml, PBS pH 7.4
T1 construct: Aβ1–42 was dissolved in hexafluoroisopropanol (HFIP)
Method: Aβ1–42 was dissolved in hexafluoroisopropanol (HFIP). After overnight incubation, HFIP was removed by evaporation. The Aβ1–42 film was dissolved in PBS buffer pH 7.4 to a concentration of 1 mg/ml and incubated for 7 days at 37°C. For the measurements, a Biacore 1000 (GE Healthcare) instrument was used. Aβ1–42 fibrils (6800 RU) were immobilized on a CM5 sensorchip (GE Healthcare) via amine coupling. The running and sample buffer was PBS, pH 7.4. To allow comparison between the ACI-80 compounds, but to avoid potential over-interpretation of the data by fitting multiple k on and k off values for a yet undefined number of different binding sites, only two values have been taken for further evaluation. Response units achieved under identical injection conditions allow comparison of binding strengths of the compounds. Dissociation rates among the compounds have been compared by measuring the remaining response units 60 s after end of injection as a measure for dissociation (k off). All measurements have been carried out using the same flow cells with identical concentrations and injection conditions. ACI-80-Kϕ derivatives were injected as analytes in a concentration of 50 µg/ml at a flow rate of 5 µl/min for 2 minutes at ambient temperature. The data were evaluated using BiaEvaluation 4.1. The interactions between Aβ1–42 and ACI-80-Kϕ derivatives are given in resonance units (RU) and in % of ACI-80-Kϕ response units. […] Aβ1–42 fibrils were immobilized on a Biacore sensor-chip as described in the methods section, and the interactions of the ϕ-labeled ACI-80 derivatives were measured and compared with original ACI-80-Kϕ. […] Therefore we decided for semi-quantitative comparison between all compounds only. The maximal responses in resonance units (RU) of the ϕ-labeled ACI-80 derivatives during the analyte injection and the remaining response 60 s after injection end (as a semi-quantitative measure for the dissociation rate), have been related to the respective values obtained from identical concentrations of ACI-80-Kϕ in percent.

Aβ1–42 monomers = target: T2, Aβ1–42 monomers (Homo sapiens, UniProt P05067); test: ELISA, compound binding to Aβ1–42 peptide film (predominantly monomers); settings: 10 µg/ml compound; for binding value, binding Aβ1–42 monomers: optical density after pNPP incubation
T2 construct: Aβ1–42 peptide film was prepared from lyophilized powder (Bachem); purchased Bachem
Method: (§1) Aβ1–42 peptide film was prepared from lyophilized powder (Bachem). The powder was reconstituted in HFIP to a final concentration of 1 mM, sonicated for 15 min at room temperature (RT), agitated overnight (ON), and aliquoted into non-siliconized microcentrifuge tubes (12 µl corresponding to 55 µg). The HFIP was evaporated under a stream of argon. The resulting peptide film was vacuum dried for 10 min and stored at -80°C. For direct use as peptide film, an aliquot of Aβ1–42 peptide film was reconstituted with 0.54% dimethylsulphoxide (DMSO) in phosphate buffered saline (PBS) to obtain a final concentration of 10 µg/ml and then used for the ELISA as described below. To prepare fibrils, 55 µg aliquot of peptide film was dissolved in 55 µl of 50 mM Tris-HCl, pH 7.4 and incubated at 37°C for five days. Next, the sample was centrifuged (10’000 rpm for 5 min) and the pellet was diluted in 50 mM Tris-HCl, pH 7.4.
(§2) Aβ1–42 peptide preparations were diluted in 0.05 M bicarbonate-carbonate buffer pH 9.6, to the final concentration of 10 µg/ml and coated onto ELISA plates (MaxiSorp, Nunc). After blocking (PBS; 0.05% Tween; 1% BSA), plates were incubated with 2- or 3-fold dilutions of D-compounds (starting concentration: 10 µg/ml) and incubated for 2 h at 37°C. Plates were then washed and incubated for 2 h at 37°C with the detection antibody Rabbit-a-fluorescein isothiocyanate-AP (Sigma; 1∶10’000 dilution) followed by the incubation for 2.5 h at room temperature (RT) with 1 mg/ml of phosphatase substrate (pNPP, Sigma). The absorbance signal was read at 405 nm wavelength using a Tecan plate reader (Tecan Group Lt, Männedorf, Switzerland).
(§3) ELISA plates (MaxiSorp, Nunc) were coated with anti-Aβ antibody 6E10 (Covance) at a concentration of 5 µg/ml. Either monomeric Aβ1–42 peptide film (mainly monomeric) or Aβ1–42 fibrils, which were prepared as described above, were diluted in PBS to the final concentration 10 µg/ml and mixed with 10-fold dilutions of D-peptide compounds in Eppendorf tubes (starting concentration of D-peptide compounds: 10 µg/ml). The tubes were incubated for 2 h at 37°C. Next, samples were distributed onto the ELISA plate and kept for 2 h at 37°C. Plates were washed and incubated for 2 h at 37°C with the detection antibody Rabbit-a-fluorescein isothiocyanate-AP (Sigma; 1∶10′000 dilution) following the incubation overnight (ON) at RT with 1 mg/ml of phosphatase substrate (pNPP, Sigma). The absorbance signal was read at 405 nm wavelength using the Tecan plate reader (Tecan Group Ltd, Männedorf, Switzerland).
(§4) To verify the SPR results, ELISA was employed to assay the interaction of the ACI-80 derivatives ACI-80-Kϕ, ACI-81-Kϕ, ACI-82-Kϕ, ACI-83-Kϕ, ACI-84-Kϕ, ACI-85-Kϕ, ACI-86-Kϕ, ACI-87-Kϕ, [^19F]-ACI-87-Kϕ, ACI-88-Kϕ, [^19F]-ACI-88-Kϕ, ACI-89-Kϕ, [^19F]-ACI-89-Kϕ) with Aβ1–42 fibrils and Aβ peptide film in solution containing mostly monomers and smaller oligomers (Table 4). To avoid any bias by possible conformational influences the ELISA has been carried out in two versions, once with immobilized antibody and once with immobilized Aβ1–42 as described in the methods section. Both assays yielded similar results and confirmed each other. […] Panels A and B in Figure 2 show the results for binding to Aβ1–42 fibrils and panels C and D in Figure 2 show the results for binding to freshly prepared Aβ1–42 peptide film, which contains mostly monomeric Aβ. In Table 4, the performance of the peptides is expressed relative to that of ACI-80-Kϕ.

Aβ1–42 fibrils [2] = target: T1, Aβ1–42 fibrils; test: ELISA, compound binding to Aβ1–42 fibrils; settings: for binding value, binding Aβ1–42 fibrils: optical density after pNPP incubation
Method: as §1, §2, §3, §4

[3] = target: T3, Aβ plaques in brain sections of transgenic APP (V717I) x PS1 (A246E) mice (Homo sapiens, UniProt P05067); test: Ex vivo staining of mouse brain slices by FITC labeled compounds; settings: 0.01 mg/ml ϕ-labeled compound, 2 h; 10 µm cryostat sections; fluorescence microscopy
T3 construct: triple image overlay of respective stains reveal that the ϕ-compounds identify plaques; from tissue; host or cells: brain cryosections of APP (V717I) x PS1 (A246E) transgenic mice
Method: In vitro tissue section staining was performed according to previously described protocols with slight modifications. Mouse brains were obtained from male transgenic (tg) APP (London mutation V717l) x PS1 (A246E) mice aged 13–21 months and from female wild type (wt) mice aged 9–10 months. The mice were anesthetized and transcardially perfused with saline. The brains were removed and snap frozen. 10 µm thick sagittal cryostat sections through the whole mouse brain were produced and mounted onto glass slides. ϕ-labeled compounds were applied to investigate binding. Thus, the slides were thawed, washed in PBS and fixed in 4% paraformaldehyde (20 min at RT) just before incubation with ϕ-labeled compounds. One series of sections was treated only with fluorescent compounds (0.01 mg/ml, incubation time 2 h) while another series of sections were incubated with anti-Aβ antibody 6E10 at 1∶500 dilution (SIG-39320, Covance; final antibody concentration was 2 µg/ml) in addition to ϕ-labeled compounds (0.01 mg/ml). The slices were washed in PBS. The sections incubated with ϕ-labeled compound and 6E10 antibody were further incubated for 2 h at RT with Goat-anti-Mouse IgG1– AlexaFluor 555 (A21127, Invitrogen, 1∶1000 dilution) and washed with PBS. Finally, all sections were counterstained with 4’–6-Diamidino-2-phenylindole (DAPI, 32670, Sigma, incubation 5 min at RT) for the visualization of cell nuclei. The slides were mounted using Prolong Gold Antifade mounting medium (P36930, Invitrogen) and coverslipped.
The tissues were analyzed using a fluorescent Zeiss Axioscope 2 Plus microscope using the AxioVision 4 image analysis software.
A further series of slices was stained using a primary anti-fluorescein isothiocyanate antibody combined with alkaline phosphatase reaction for visualization of ϕ-labeled peptides. Briefly, the sections were treated with blocking solution (10% normal goat serum (NGS), 0.25% Triton X-100 in PBS for 1 h at RT) and incubated with primary antibody (rabbit-anti-FITC; Invitrogen) at a dilution of 1∶500. The sections were then washed and incubated for 2 h at RT with the secondary antibody goat-anti-rabbit-alkaline phosphatase (Sigma) at a dilution of 1∶100. After washing, the slides were incubated with BCIP/NBT substrate (Sigma) for 3 min, washed, dehydrated and mounted using Eukitt mounting medium.

[4] = value of one single experiment only
[5] = 10 µg/ml compound, value of one single experiment only

| Substance | SPR response as compared to ACI-80-Kϕ (Aβ1–42 fibrils [1]) | binding value, binding Aβ1–42 monomers (Aβ1–42 monomers; [4]) | ELISA binding to Aβ1–42 (Aβ1–42 fibrils [2]) | binding value, binding Aβ1–42 fibrils (Aβ1–42 fibrils [2]; [5]) | staining / recognition of Aβ plaques [3] | % binding relative to ACI-80-Kϕ, Aβ1–42 monomers (Aβ1–42 monomers; ACI-80-Kϕ = 100) [%] | binding value, binding Aβ1–42 monomers (Aβ1–42 monomers; average of two or three experiments) | % binding relative to ACI-80-Kϕ, Aβ1–42 fibrils (Aβ1–42 fibrils [2]; 10 µg/ml compound, ACI-80-Kϕ = 100) [%] | binding value, binding Aβ1–42 fibrils (Aβ1–42 fibrils [2]; 10 µg/ml compound, average of two or three experiments) | off-rate based on remaining response 60 s after injection end (Aβ1–42 fibrils [1]) |
| --- | --- | --- | --- | --- | --- | --- | --- | --- | --- | --- |
| QSHYRHISPAQKK[^19F]ϕ [[^19F]-ACI-87-Kϕ, fluorinated ϕ-labeled ACI-87] | decreased response in comparison to the compound without label | *0.86 | bound well to Aβ1–42 fibrils | *1.26 | readily recognized amyloid plaques |  |  |  |  |  |
| ZSHYRHISPAQVKϕ [ACI-81-Kϕ, ϕ-labeled ACI-80 derivative, Q1Z] | not significantly increased |  |  |  |  | 27 | 0.13 | 22 | 0.20 |  |
| SHYRHISPAQKK[^19F]ϕ [[^19F]-ACI-88-Kϕ, fluorinated ϕ-labeled ACI-88] |  | *1.05 | bound well to Aβ1–42 fibrils | *1.76 | readily recognized amyloid plaques |  |  |  |  | slowest off-rate of all tested compounds |
